Laboratory results: the supplement of paper PMC10307832

Tests used:
Experiment in all cases: relative viability (nuclei count vs DMSO), 5 days (fraction); higher = more cells survive
AZ505 = compound: C1CCC(CC1)N(CCNCCC2=C3C(=C(C=C2)O)NC(=O)CO3)C(=O)CCNCCC4=CC(=C(C=C4)Cl)Cl [AZ505]
Method in brief: (§1)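 Viability was read as treated-well nuclei divided by vehicle-well nuclei, using the median across plates. Lung cancer cell lines in 1536-well plates were kept overnight at 37 °C, pinned with five √10-spaced library-drug doses, and after 5 days were Hoechst-stained, imaged at 4× and counted in MetaXpress. Plates passed only with control CV below 25% and at least one doubling.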

Dactolisib = compound: Cn1c(=O)n(-c2ccc(C(C)(C)C#N)cc2)c2c3cc(-c4cnc5ccccc5c4)ccc3ncc21 [Dactolisib]
Method in brief: as §1

AZ505 + Decitabine = compound: C1CCC(CC1)N(CCNCCC2=C3C(=C(C=C2)O)NC(=O)CO3)C(=O)CCNCCC4=CC(=C(C=C4)Cl)Cl [AZ505] + Nc1ncn([C@H]2C[C@H](O)[C@@H](CO)O2)c(=O)n1 [Decitabine] (partner 2 µM)
Method in brief: (§2)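 Relative viability equals treated-well nuclei counts divided by vehicle-well nuclei counts. Counts came from 4× images of lung cancer cell lines grown in 1536-well plates for 5 days after pin-tool dosing on the day after seeding. Dosing used one drug alone or a fixed anchor-drug dose plus five library-drug doses (not always all listed) in √10 steps, and values are medians of duplicate plates.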

Dactolisib + Linsitinib = compound: Cn1c(=O)n(-c2ccc(C(C)(C)C#N)cc2)c2c3cc(-c4cnc5ccccc5c4)ccc3ncc21 [Dactolisib] + C[C@]1(O)C[C@@H](c2nc(-c3ccc4ccc(-c5ccccc5)nc4c3)c3c(N)nccn32)C1 [Linsitinib] (partner 1 µM)
Method in brief: as §2

## UMC-11
AZ505; 0.08 µM
  relative viability: 0.887
AZ505; 0.253 µM
  relative viability: 0.994
AZ505; 0.8 µM
  relative viability: 0.94
AZ505; 2.53 µM
  relative viability: 1.07
AZ505; 8 µM
  relative viability: 1.03
Dactolisib; 0.002 µM
  relative viability: 0.96
Dactolisib; 0.006325 µM
  relative viability: 0.836
Dactolisib; 0.02 µM
  relative viability: 0.77
Dactolisib; 0.06325 µM
  relative viability: 0.398
Dactolisib; 0.2 µM
  relative viability: 0.273
AZ505 + Decitabine; first compound 0.08 µM
  relative viability: 0.742
AZ505 + Decitabine; first compound 0.253 µM
  relative viability: 0.674
AZ505 + Decitabine; first compound 0.8 µM
  relative viability: 0.53
AZ505 + Decitabine; first compound 2.53 µM
  relative viability: 0.52
AZ505 + Decitabine; first compound 8 µM
  relative viability: 0.666
Dactolisib + Linsitinib; first compound 0.002 µM
  relative viability: 1.02
Dactolisib + Linsitinib; first compound 0.006325 µM
  relative viability: 0.987
Dactolisib + Linsitinib; first compound 0.02 µM
  relative viability: 0.671
Dactolisib + Linsitinib; first compound 0.06325 µM
  relative viability: 0.286
Dactolisib + Linsitinib; first compound 0.2 µM
  relative viability: 0.262
